One substance from publication PMC8495455, “Discovery of a transdermally deliverable pentapeptide for activating AdipoR1 to promote hair growth” (EMBO Molecular Medicine, 2021) can be followed below.

Assay [1] concerns FGF7 protein. Nature of the assay: Growth factor protein quantitation in DP cell medium, FGF7. The format is cell-based, human. As to conditions: for protein_FGF7: DP cell medium. An excerpt:
(§1) Next, we investigated the downstream effects of P5 on hair growth factor genes and proteins in DP cells. […] We tested whether P5 can also increase the mRNA levels and proteins of hair growth factors in DP cells: IGF‐1, VEGF, HGF, platelet‐derived growth factor alpha (PDGFA), and fibroblast growth factor (FGF) 7, which are known to induce or maintain the anagen phase of the hair cycle (Jindo et al, [1994]; Philpott et al, [1994]; Yano et al, [2001]; Jang, [2005]; Tomita et al, [2006]; Iino et al, [2007]).
Human DP cells were grown on a 100‐mm cell culture dish to 100% confluency. After washed by PBS three times, the cells were cultured with serum‐free DMEM and treated with P5. After 48 h, the medium was collected and filtered by a […]. The filtrate was then concentrated using a centrifugal concentrator (Vivaspin 6, 10‐kDa molecular weight cutoff, centrifuged 2,600 g at 4°C for 13 min, Sartorius Stedim Biotech). The signals of each protein in the concentrated media were detected and quantified, based on the enzyme‐linked immunosorbent assay (Human Cytokine Antibody Array C2000, RayBiotech).

Assay [2] has as its system matrix cells of human HF bulbs. The assay is described as follows: IF staining Ki-67 of ex vivo cultured HF bulb. As to conditions: for Numbers of Ki-67-positive cells normalized to DAPI-stained cells: ex vivo cultured HF bulb, individual HFs, n = 8. It is filed as cell-based. An excerpt:
(§2) We next investigated whether P5 can reproduce the effects of APN on hair growth promotion ex vivo (Won et al, [2012]) using ex vivo human HF organ culture model. […] The Ki‐67‐positive cell portion of the matrix area in the P5‐treated HFs was higher than that in the vehicle‐treated group (Fig 3E).
(§3) Paraffin‐embedded mouse cutaneous back tissue was sectioned (4 μm thickness) and stained with hematoxylin and eosin. For IF staining, human ORS cells cultured in FiTC‐P5, sectioned paraffin‐embedded human HFs (7 μm thickness), and sectioned paraffin‐embedded mouse cutaneous dorsal tissue or human skin tissue (5 μm thickness) were incubated at 4°C overnight with the following primary antibodies diluted in the diluent reagent (Invitrogen): phospho‐AMPK (#2535, 1:100; Cell Signaling), Ki‐67 (#M7240, 1:200; Dako), versican (#ab177480, 1:200; Abcam), or AdipoR1 antibody (#ab126611, 1:200; Abcam). After three washes with PBS, the slides were incubated with the secondary Alexa Fluor 488‐labeled anti‐mouse or rabbit IgG antibody (#ab150077, #ab150113, 1:200; Invitrogen), or Alexa Fluor 594‐labeled anti‐rabbit IgG antibody (#a11012, 1:200; Invitrogen) at 25°C for 1 h. Nuclei were counterstained with 4′,6‐diamidino‐2‐phenylindole (DAPI; #D1306, 1:1,000; Invitrogen). Microscopic observations were performed with a Nikon Eclipse Ci‐L microscope (Nikon). IF intensity was observed and recorded with a Nikon Eclipse Ni‐E fluorescence microscope (Nikon).

In assay [3] the test system is AMPK phosphorylation in DP cells. Nature of the assay: Western blot p-AMPK, DP cells. It is filed as cell-based, human. As to conditions: P5 0 - 50 μM, APN 2.5 μg/ml. An excerpt: (§4) Following the confirmation of the molecular interaction between AdipoR1 and P5, we evaluated the activation of the intracellular signaling pathway by P5. We investigated whether APN treatment on ORS and DP cells could activate AMPK or ERK signaling pathways, which are previously known to be downstream effectors of AdipoR1 (Mao et al, [2006]; Deepa & Dong, [2009]; Shibata et al, [2012]). […] Next, for determination of whether both P5 and APN mediates the phosphorylation of AMPK through AdipoR1 in ORS and DP cells, the cells were transfected with AdipoR1 siRNA (Appendix Fig S1). […] Collectively, P5 activates AMPK signaling pathway through AdipoR1 in ORS and DP cells in vitro.
Human ORS and DP cells or skin tissue were lysed (RIPA lysis buffer; #20‐188; Merck Millipore). The obtained protein was then separated by 8% SDS–PAGE and transferred to a polyvinylidene fluoride membrane (Amersham). The protein transferred membranes were incubated overnight with the specific antibodies. […] Antibody‐antigen complexes detected by enhanced chemiluminescent substrate (Thermo Fisher) were captured and quantified by Amersham imager 680 systems (GE Healthcare).

For assay [4], the system named is AMPK phosphorylation through AdipoR1 in ORS cells. Nature of the assay: Western blot p-AMPK in AdipoR1 siRNA-transfected ORS cells. The format is cell-based, human.
Description: as §4
(§5) All transfections were performed using Lipofectamine 2000 following the manufacturer’s instructions (#11668019; Thermo Fisher). Human DP and ORS cells were cultured without antibiotics until reaching 50% confluency. AdipoR1 or scrambled siRNA (Bioneer) was used. The culture medium was changed 6 h after transfection, and the cells were incubated for another 24 h before subsequent analyses.
(§6) Human ORS and DP cells or skin tissue were lysed (RIPA lysis buffer; #20‐188; Merck Millipore). […] Antibody‐antigen complexes detected by enhanced chemiluminescent substrate (Thermo Fisher) were captured and quantified by Amersham imager 680 systems (GE Healthcare).

Assay [5] has as its system p-AMPK in ORS and DP cells of human HFs. The assay is described as follows: IF staining p-AMPK of ex vivo cultured HF bulb. The format is cell-based. As to conditions: vs vehicle.
Description: as §2
as §3, with “Microscopic observations were performed with a Nikon Eclipse Ci‐L microscope (Nikon).” left out

The subject of assay [6] is VEGF mRNA. The assay is described as follows: qRT-PCR growth factor gene expression in DP cells, VEGF. Conditions: for mRNA_VEGF: DP cells. The format is cell-based, human.
Description: as §1
Total RNA was isolated from P5‐treated DP cells using RNAiso Plus (#9109; TaKaRa). We used the total RNA (1 µg) for cDNA synthesis using a RevertAid First Strand cDNA Synthesis Kit (Thermo Fisher) according to the manufacturer's instructions. The mRNA expression levels were quantified on a 7500 Real‐time PCR System (Thermo Fisher) using TB Green Premix Ex Taq (TaKaRa Bio): human IGF‐1, VEGF, HGF, PDGFA, FGF7, and glyceraldehyde 3‐phosphate dehydrogenase (GAPDH) (Appendix Table S2). The relative expression levels of each gene were determined by the 2^‐ΔΔCT method.
Background: In qPCR the cycle at which signal appears reflects the starting amount.

For assay [7], the system named is AMPK phosphorylation through AdipoR1 in DP cells. The assay is described as follows: Western blot p-AMPK in AdipoR1 siRNA-transfected DP cells. The format is cell-based, human.
Description: as §4, §5, §6
On the technique in general: Immunoblotting shows a protein as a band on a membrane.

The mark [8] stands for this setting: P5 5μM, relative to Control = 1, replicate 1.
Where [9] appears, read: P5 5μM, relative to Control = 1, replicate 2.
The mark [10] stands for this setting: P5 5μM, relative to Control = 1, replicate 3.
Where [11] appears, read: P5 25μM, relative to Control = 1, replicate 1.
[12] abbreviates: P5 25μM, relative to Control = 1, replicate 2.
[13] abbreviates: P5 25μM, relative to Control = 1, replicate 3.

Values joined by “and” are separate entries in the source; they are usually repeats but may differ in a detail not shown here. Identical values can stand only once.

Regarding “GLYYF [P5, GST-fused (GST-P5) in pulldown assays]”, the protein_FGF7 in assay [1] (setting [8]) turned out to be 1.396; in assay [1] (setting [9]), 1.679; in assay [1] (setting [10]) it was 1.269; in assay [1] (setting [11]), 3.318; in assay [1] (setting [12]) it was 3.35; in assay [1] (setting [13]), 1.357. Also, the “FGF7 protein expression level” value in assay [1] (P5-treated DP cells, 48 h medium, n = 3) is listed as “elevated”. Further, the “Numbers of Ki-67-positive cells normalized to DAPI-stained cells” value was 0.25 and 0.29 and 0.26 and 0.24 and 0.3 and 0.22 and 0.21 in assay [2] (P5 5μM); 0.29 and 0.28 and 0.31 and 0.37 and 0.42 and 0.41 and 0.43 and 0.33 in assay [2] (P5 25μM). Also, in assay [2] (ex vivo cultured human HFs, vs vehicle), the “Ki-67 in matrix cells of HF bulbs” value was “increased significantly”. Further, in assay [3], the “Phosphorylation of AMPK, DP cells” value is reported as “concentration‐dependent phosphorylation of AMPK”. The “p-AMPK intensity after AdipoR1 siRNA transfection, ORS cells” value in assay [4] is “intensity was reduced”. Moreover, the “p-AMPK in HF bulb (IF staining)” value in assay [5] is “prominently detected in ORS and DP cells”. Further, the mRNA_VEGF in assay [6] (setting [8]) is 1.194; in assay [6] (setting [9]) it was 1.24; in assay [6] (setting [10]), 0.9876; in assay [6] (P5 5μM, relative to Control = 1, replicate 4), 0.849; in assay [6] (setting [11]), 2.123; in assay [6] (setting [12]), 1.672. The mRNA_VEGF was 2.456 in assay [6] (setting [13]) and 1.575 in assay [6] (P5 25μM, relative to Control = 1, replicate 4). In assay [6] (P5-treated DP cells, n = 4), the “VEGF mRNA expression” value is on record as “significantly increased”. In addition, the “p-AMPK intensity after AdipoR1 siRNA transfection, DP cells” value in assay [7] is “intensity was reduced”.
